Values of other authors, collected in US7198895B2, “In vitro cell-based methods for biological validation and pharmacological screening of chemical entities and biologicals” (priority 2000, dated 2007).

Assays:
[1] = treated subjects
[2] = test system: HepG2 cells; conditions: HepG2 cells exposed to cis-platinum; ref (17)

Row | Structure (SMILES) | life-threatening adverse event [1] | number of genes consistently differentially expressed [2] | number of genes differentially expressed [2]
1 | CCNC(C)Cc1cccc(C(F)(F)F)c1 (stereo not drawn) [Fenfluramine] | valvular fibrosis | – | –
2 | N.N.[Cl][Pt][Cl] [cis-platinum] | – | 14 genes | ≥ 200 genes
